For assay [1], the system named is p70S6K (T389) phosphorylation in hCaEC. Nature of the assay: Western blot of p70S6K (T389) phosphorylation in hCaEC. The assay is classed as cell-based, human. To be noted: for effect on p70S6K T389 phosphorylation in hCaEC: 300 nM drug in growth media, 36 hours, after 24 h synchronization. The protocol: Human Coronary Endothelial Cells (hCaEC, Cambrex) were seeded on 100 mm plastic dishes (1-3×10^5 cells per dish) and incubated at 37° C. with 5% CO2 in complete growth media containing hFGF, HEGF, VEGF, R^3-IGF-1 and 5% FBS (GM). Cells were allowed to grow until dishes were 30-40% confluent. Cells were synchronized by incubation in basal media without supplements (BM) for 24 h. After synchronization the BM was replaced with GM containing test compounds, DMSO and BSA (Experimental dish: GM containing 300 nM test compounds, 0.1% BSA; Positive control: GM containing 0.1% BSA and 0.1% DMSO; Negative control: BM containing 0.1 or 0.5% FBS, 0.1% BSA and 0.1% DMSO).
Cells were incubated for 24 or 36 hours at 37° C. with 5% CO2. After which dishes were 50-70% confluent. Dishes were rinsed with warm PBS to remove excess FBS and than placed on ice. Whole cell lysates were prepared by adding 150-200 ul of RIPA lysis buffer at 4° C. (50 mM Tris HCl pH 8, 150 mM NaCl, 1% NP-40, 0.5% sodium deoxycholate, 0.1% SDS, 2 mM PMSF, 1 mM sodium orthovanadate, and protease inhibitor cocktail, Santa Cruz Biotechnology) to the culture dishes and collected by scrapping the plate surface with a cell scrapper. Lysates were transferred to 1 ml eppendorf tubes and incubated on ice with vortexing for 30 min. Samples were than centrifuged for 8 min at 10000 rpm. Supernatants were collected and transferred into new tubes and stored at −70° C.
The total protein concentration of the samples was determined by a modification of the method of Bradford (Quick Start Bradford Microplate Standard Assay, Bio-Rad) with bovine γ-globulin as a standard.
Total volume of the loaded sample was 45 ul containing 15 ul of 3× sample buffer (Laemmli Sample Buffer, Bio Rad), and sample (30 ul) containing 25 to 50 ug of protein. Samples were diluted to the same protein concentration. Samples were mixed and boiled at 98° C. for 3-4 minutes. Denaturated samples were separated in 4-15% gradient or 12% Ready Tris-HCl gels (Bio-Rad) in running buffer 25 mM Tris, pH 8.3, 192 mM glycine, 0.1% SDS at 150-180 V for 60-90 minutes and transferred to Hybond-ECL membrane (Amersham Biosciences) in 25 mM Tris, pH 8.3, 192 mM glycine, 20% methanol at 100 V for 1 hour.
Protein transfer to the membrane was verified by staining with Ponceau. Ponceau was removed by washing membranes 3 times for 5 minutes in TBS-T (10 mM Tris, pH 7.4, 150 mM NaCl, and 0.1% Tween 20). The membrane was blocked with a 3% solution of nonfat dry milk (Blotting-Grade Blocker, Bio-Rad) in TBS-T for 1 hour at room temperature. Membranes were then incubated with rabbit anti-phospho-p70S6K (T389) monoclonal antibody (Cell Signaling) 1:200 or 1:400 in 3% nonfat dry milk overnight at +4° C. and gently rocked. Goat polyclonal antibodies raised against the C-terminus of actin of human origin (Santa-Cruz Biotechnology) were used at a 1:800 dilution.
After overnight incubation with the primary antibody, membranes were washed with TBS-T 3 times for 5 minutes followed by incubation with the appropriate horseradish peroxidase linked secondary antibodies in 3% nonfat dry milk according to antibody supplier instructions. After one-hour incubation at room temperature with secondary antibodies the membrane was washed again using TBS-T, 3 times for 5 minutes and developed using ECL Plus (Amersham Biosciences). Images of the membranes were scanned and stored using a multi-channel scanning system FLA-5000 (FUJI Film). […]

The test system of assay [2] is human coronary artery endothelial cells (hCaEC). In words: hCaEC migration induced by full growth media after 24 h drug pretreatment. To be noted: for effect on full growth media induced hCaEC migration after drug pretreatment: 24 h pretreatment in full growth media, drug present during migration. The assay is classed as cell-based. The protocol:
(§1) In acute studies, cells were collected, counted, and 200,000 hCaEC or 160,000 hCaSMC placed in the upper chambers of modified boyden chambers in 24 well plates (BD Biosciences). Plates contained microporous membranes of 3.0 and 8.0 um for hCaEC and hCaSMC, respectively. […] After migration, cells were stained with calcein-AM for 90 minutes and fluorescence determined using a plate reader capable of measuring fluorescence emitted by the bottom of the microporous filter.
Migration of hCaEC was induced by full growth media and the effects of the drugs sirolimus, dexamethasone, zotarolimus, everolimus, and paclitaxel on hCaEC migration determined. Following pretreatment cells were counted and re-suspended in basal media containing drugs and migration initiated.

Assay [3] has as its system human coronary artery smooth muscle cells (hCaSMC). In words: PDGF-BB induced hCaSMC migration after 24 h drug pretreatment. The assay is classed as cell-based. Conditions: 24 h pretreatment; PDGF-BB 25 ng/ml. How it is done: as §1
Pre-exposure with the mTOR agent sirolimus has been reported to block rat aortic smooth muscle cell migration in response to S1P-1 and porcine aortic smooth muscle in response to PDGF-BB. […] In contrast to their inability to block serum-induced migration, zotarolimus, dexamethasone, and paclitaxel all inhibited migration in response to the single chemotactic agent PDGF-BB (25 ng/ml).

For assay [4], the system named is p70S6K (T389) phosphorylation in hCaSMC. Nature of the assay: Western blot of p70S6K (T389) phosphorylation in hCaSMC. The assay is classed as cell-based, human. Conditions: 300 nM drug, 36 hours, after 24 h synchronization. The protocol: To determine if inhibition of p70S6K was involved in serum-induced migration Western blot experiments were performed on hCaEC and hCaSMC treated using an experimental paradigm similar to those of the migration experiments. […] The effects of drug treatment on p70S6K T389 phosphorylation in hCaEC are illustrated in FIG. 6A-6B. […] Paclitaxel also reduces T389 phosphorylation though this effect is less than that of the mTOR antagonists.
Membranes were probed with a rabbit anti-phospho-p70S6K (T389) monoclonal antibody (Cell Signaling). […] Furthermore, the anti-migratory activity of the mTOR antagonists is not likely to contribute to their anti-restenotic activity. Conversely, paclitaxel is a potent anti-migratory agent and this effect is likely to contribute to the anti-restenotic activity.
Background: Immunoblotting shows a protein as a band on a membrane.

Assay [5] concerns human coronary artery endothelial cells (hCaEC). Nature of the assay: hCaEC migration, modified Boyden chamber, acute drug exposure, induced by 5% FBS. The assay is classed as cell-based. Conditions: for effect on hCaEC migration: no pretreatment, 22 hour migration. The protocol:
As such, EC and SMC migration in response to hFGF, HEGF, VEGF, R^3-IGF-1 and FBS or FBS alone was determined using a modified Boyden chamber.
When necessary, each cell type was passed at ˜75% confluence.
as §1

Assay [6] concerns human coronary artery smooth muscle cells (hCaSMC). In words: hCaSMC migration in response to FBS alone after 24 h drug pretreatment. To be noted: 24 h pretreatment in growth media, drug present. The assay is classed as cell-based. The protocol: as §1
Another experiment was conducted to determine if growth factors contained in full growth media played a role in the inability of the mTOR antagonist zotarolimus or dexamethasone to inhibit human coronary artery smooth muscle cell (hCaSMC) migration. Migration in response to FBS following pretreatment of hCaSMC with different concentrations of drugs was determined for the drugs dexamethasone, zotarolimus, rapamycin, and paclitaxel. To explore this effect, hCaSMC were synchronized, pretreated with drug in growth media for 24 hours, resuspended in basal media containing drug and migration in response to FBS alone determined.

Assay [7] has as its system human coronary artery endothelial cells (hCaEC). Nature of the assay: hCaEC migration in response to FBS after 24 h drug pretreatment. The assay is classed as cell-based. Conditions: 24 h pretreatment in growth media; migration to 5% FBS without growth factors; drug present. How it is done:
as §1
To determine if growth factors contained in full growth media played a role in the inability of the mTOR antagonists (sirolimus or zotarolimus) or dexamethasone to inhibit migration, additional experiments were conducted to determine if drug pretreatment would affect migration induced by 5% FBS in the absence of growth factors. Migration in response to FBS following pretreatment of hCaEC with different concentrations of drugs was determined for the drugs sirolimus, dexamethasone, zotarolimus, and paclitaxel. To explore this effect in hCaEC, cells were synchronized, pretreated with drug in growth media for 24 hours, resuspended in basal media containing drug and migration in response to FBS determined. […] Dexamethasone promoted hCaEC migration.

Assay [8] has as its system pRb phosphorylation. In words: pRb phosphorylation. The assay is classed as cell-based.

“Also recorded” adds a separate entry of the source.

Turning to `C[C@@H]1C[C@H]2[C@@H]3CCC4=CC(=O)C=C[C@]4(C)[C@@]3(F)[C@@H](O)C[C@]2(C)[C@@]1(O)C(=O)CO` [dexamethasone], the “effect on p70S6K T389 phosphorylation in hCaEC” value (from here on “effect … in hCaEC”) in assay [1] is recorded as “does not inhibit”.
On to `CO[C@H]1C[C@@H]2CC[C@@H](C)[C@@](O)(O2)C(=O)C(=O)N2CCCC[C@H]2C(=O)O[C@H]([C@H](C)C[C@@H]2CC[C@@H](OCCO)[C@H](OC)C2)CC(=O)[C@H](C)/C=C(\C)[C@@H](O)[C@@H](OC)C(=O)[C@H](C)C[C@H](C)/C=C/C=C/C=C/1C` [everolimus], for which the “effect on full growth media induced hCaEC migration after drug pretreatment” value in assay [2] is “only paclitaxel inhibits”.
Turning to `CC(=O)O[C@H]1C(=O)[C@@]2(C)[C@H]([C@H](OC(=O)c3ccccc3)[C@]3(O)C[C@H](OC(=O)[C@H](O)[C@@H](NC(=O)c4ccccc4)c4ccccc4)C(C)=C1C3(C)C)[C@]1(OC(C)=O)CO[C@@H]1C[C@@H]2O` [paclitaxel], the “effect on full growth media induced hCaEC migration after drug pretreatment” value in assay [2] is recorded as “inhibits”. In addition, in assay [2] (in the presence of multiple growth factors and FBS), the “effect on migration of human coronary artery endothelial cells in vitro (summary statement)” value is on record as “inhibits”. Besides, in assay [3], the “effect on hCaSMC migration in response to PDGF-BB” value is “inhibited”. Moreover, the “effect on p70S6K T389 phosphorylation in hCaSMC” value in assay [4] was “reduces”. For the same compound, the “anti-migratory potency in hCaEC compared to hCaSMC” value in assay [5] is “significantly greater”. Also, the “effect on FBS-induced hCaSMC migration after drug pretreatment” value in assay [6] is listed as “significantly blocks”. Further, the “effect on FBS-induced hCaEC migration after drug pretreatment” value in assay [7] is “significantly blocks”. Also, the “effect … in hCaEC” value in assay [1] is on record as “inhibit”; in assay [1] (listed as Paclitaxel), “reduces”.
On to `CO[C@H]1C[C@@H]2CC[C@@H](C)[C@@](O)(O2)C(=O)C(=O)N2CCCC[C@H]2C(=O)O[C@H]([C@H](C)C[C@@H]2CC[C@@H](O)[C@H](OC)C2)CC(=O)[C@H](C)/C=C(\C)[C@@H](O)[C@@H](OC)C(=O)[C@H](C)C[C@H](C)/C=C/C=C/C=C/1C` [sirolimus], for which the “effect on hCaEC migration” value in assay [5] is “no effect”.
For `CO[C@H]1C[C@@H]2CC[C@@H](C)[C@@](O)(O2)C(=O)C(=O)N2CCCC[C@H]2C(=O)O[C@H]([C@H](C)C[C@@H]2CC[C@H](n3cnnn3)[C@H](OC)C2)CC(=O)[C@H](C)/C=C(\C)[C@@H](O)[C@@H](OC)C(=O)[C@H](C)C[C@H](C)/C=C/C=C/C=C/1C` [zotarolimus], in assay [2], the “effect on full growth media induced hCaEC migration after drug pretreatment” value is reported as “only paclitaxel inhibits”. Besides, in assay [8], the “effect on pRb phosphorylation” value is recorded as “reduces”. In assay [3], the “effect on hCaSMC migration in response to PDGF-BB” value was “inhibited”. Also, the “effect on p70S6K T389 phosphorylation in hCaSMC” value in assay [4] is on record as “completely inhibit”. In addition, the “effect on hCaEC migration” value in assay [5] was “no effect”. The “effect on FBS-induced hCaSMC migration after drug pretreatment” value in assay [6] is on record as “did not significantly block”. Besides, the “effect on FBS-induced hCaEC migration after drug pretreatment” value in assay [7] was “did not significantly block”. The “effect … in hCaEC” value in assay [1] is recorded as “completely block; also recorded: inhibit”. Further, the “p70S6K T389 to actin ratio compared to growth controls (densitometry)” value in assay [1] (hCaEC, 300 nM drug) is “significant inhibition”.
